Measurements taken from patent US20210094971A1, “HETEROCYCLIC COMPOUNDS” (Hoffmann-La Roche Inc., priority 2019, published 2021).
pIC50: −log10 of the molar value.

molecular target: T1, MAGL (Homo sapiens, UniProt Q99685); assay: 2-AG assay (MAGL inhibitory activity, hydrolysis of 2-arachidonoylglycerol followed by mass spectrometry); format: biochemical; details: 50 pM MAGL, 8 μM 2-arachidonoylglycerol, 15 min pre-incubation, 30 min incubation at RT
T1 sequence (Q99685 1-303): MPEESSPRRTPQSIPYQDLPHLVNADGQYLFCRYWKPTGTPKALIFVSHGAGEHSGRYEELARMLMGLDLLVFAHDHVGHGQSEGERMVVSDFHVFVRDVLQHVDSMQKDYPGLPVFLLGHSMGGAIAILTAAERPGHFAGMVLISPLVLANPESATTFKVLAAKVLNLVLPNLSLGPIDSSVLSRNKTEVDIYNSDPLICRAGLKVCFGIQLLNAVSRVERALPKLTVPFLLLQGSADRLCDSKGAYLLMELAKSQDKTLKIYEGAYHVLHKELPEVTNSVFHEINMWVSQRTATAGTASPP
Description: Compounds were profiled for MAGL inhibitory activity by determining the enzymatic activity by following the hydrolysis of the natural substrate 2-arachidonoylglycerol resulting in arachidonic acid, which can be followed by mass spectrometry. This assay is hereinafter abbreviated “2-AG assay”.
The 2-AG assay was carried out in 384 well assay plates (PP, Greiner Cat# 784201) in a total volume of 20 μL. Compound dilutions were made in 100% DMSO (VWR Chemicals 23500.297) in a polypropylene plate in 3-fold dilution steps to give a final concentration range in the assay from 12.5 μM to 0.8 pM. 0.25 μL compound dilutions (100% DMSO) were added to 9 μL MAGL in assay buffer (50 mM TRIS (GIBCO, 15567-027), 1 mM EDTA (Fluka, 03690-100 ml), 0.01% (v/v) Tween. After shaking, the plate was incubated for 15 min at RT. To start the reaction, 10 μL 2-arachidonoylglycerol in assay buffer was added. The final concentrations in the assay was 50 pM MAGL and 8 μM 2-arachidonoylglyerol. After shaking and 30 min incubation at RT, the reaction was quenched by the addition of 40 μL of acetonitrile containing 4 μM of d8-arachidonic acid. The amount of arachidonic acid was traced by an online SPE system (Agilent Rapidfire) coupled to a triple quadrupole mass spectrometer (Agilent 6460). A C18 SPE cartridge (G9205A) was used in an acetonitrile/water liquid setup. The mass spectrometer was operated in negative electrospray mode following the mass transitions 303.1→259.1 for arachidonic acid and 311.1→267.0 for d8-arachidonic acid. The activity of the compounds was calculated based on the ratio of intensities [arachidonic acid/d8-arachidonic acid].

Molecule	pIC50
O=C1CO[C@H]2CCN(C(=O)N3[C@@H]4COC[C@H]3C[C@@H](OCc3ccc(C(F)(F)F)cc3F)C4)C[C@H]2N1 [Example 23, (4aR,8aS)-6-[(1S,5R)-7-[[2-fluoro-4-(trifluoromethyl)phenyl]methoxy]-3-oxa-9-azabicyclo[3.3.1]nonane-9-carbonyl]-4,4a,5,7,8,8a-hexahydropyrido[4,3-b][1,4]oxazin-3-one]	6.20
O=C1CO[C@H]2CCN(C(=O)N3[C@@H]4CC[C@H]3C[C@H](OCc3ccc(C(F)(F)F)cc3F)C4)C[C@H]2N1 [Example 24, (4aR,8aS)-6-[(1S,5R)-3-[[2-fluoro-4-(trifluoromethyl)phenyl]methoxy]-8-azabicyclo[3.2.1]octane-8-carbonyl]-4,4a,5,7,8,8a-hexahydropyrido[4,3-b][1,4]oxazin-3-one]	8.85
O=C1CO[C@H]2CCN(C(=O)N3C[C@@H]4[C@@H](COc5ccc(C(F)(F)F)cc5F)[C@@H]4C3)C[C@H]2N1 [Example 25, (4aR,8aS)-6-[(1R,5S,6r)-6-[[2-fluoro-4-(trifluoromethyl)phenoxy]methyl]-3-azabicyclo[3.1.0]hexane-3-carbonyl]-4,4a,5,7,8,8a-hexahydropyrido[4,3-b][1,4]oxazin-3-one]	7.49
O=C1CO[C@H]2CCN(C(=O)N3C4CCC3CC(COc3ccc(F)cc3Cl)C4)C[C@H]2N1 (stereo partly drawn) [Example 26, (4aR,8aS)-6-[3-[(2-chloro-4-fluoro-phenoxy)methyl]-8-azabicyclo[3.2.1]octane-8-carbonyl]-4,4a,5,7,8,8a-hexahydropyrido[4,3-b][1,4]oxazin-3-one]	5.43
O=C1CO[C@@H]2CCN(C(=O)N3CC4CCC(C3)C4COc3ccc(F)cc3Cl)C[C@@H]2N1 (stereo partly drawn) [Example 27, (4aS,8aR)-6-[8-[(2-chloro-4-fluoro-phenox)methyl]-3-azabicyclo[3.2.1]octane-3-carbonyl]-4,4a,5,7,8,8a-hexahydropyrido[4,3-b][1,4]oxazin-3-one]	6.17
(4aR,8aS)-6-[rel-(1R,4R,5S)-5- [(5-chloro-4-cyclopropyl-2- pyridyl)methoxy]-2- azabicyclo[2.2.1]heptane-2- carbonyl]-4,4a,5,7,8,8a- hexahydropyrido[4,3- b][1,4]oxazin-3-one [Example 10]	7.79
(4aR,8aS)-6-[rel-(1R,4R,5S)-5- [(5-chloro-4-cyclopropyl-2- pyridyl)methoxy]-2- azabicyclo[2.2.1]heptane-2- carbonyl]-4,4a,5,7,8,8a- hexahydropyrido[4,3- b][l,4]oxazin-3-one [Example 11]	7.08
(4aR,8aS)-6-[rel-(1R,4R,5S)-5- [[2-fluoro-4- (trifluoromethyl)phenyl]methoxy]- 2-azabicyclo[2.2.1]heptane-2- carbonyl]-4,4a,5,7,8,8a- hexahydropyrido[4,3- b][1,4]oxazin-3-one [Example 20]	8.01
(4aR,8aS)-6-[rel-(1R,4R,5S)-5- [[2-fluoro-4- (trifluoromethyl)phenyl]methoxy]- 2-azabicyclo[2.2.1]heptane-2- carbonyl]-4,4a,5,7,8,8a- hexahydropyrido[4,3- b][1,4]oxazin-3-one [Example 21]	7.73
